# Data taken from ChEMBL document CHEMBL4814007, “Structure-based discovery of SIAIS001 as an oral bioavailability ALK degrader constructed from Alectinib” (Eur J Med Chem, 2021).
# Calls of active or inactive are those of the source. The rule behind the calls is not given here.
# Key:
# [1] = test system: SR; experiment: Antiproliferative activity against ALK positive human SR cells; type: functional, cell-based
# [2] = biological target: von Hippel-Lindau disease tumor suppressor/ALK tyrosine kinase receptor (Homo sapiens) (UniProt Q9UM73+P40337); experiment: Protac activity at VHL1/ALK in human SR cells assessed as increase in ALK degradation at 500 nM by Western blot analysis; type: cell-based
# [3] = test system: SR; experiment: Induction of cell cycle arrest in human SR cells assessed as increase in accumulation at G1/S phase at 100 nM incubated for 24 hrs; type: functional, cell-based
# [4] = test system: SR; experiment: Induction of cell cycle arrest in human SR cells assessed as increase in accumulation at S phase at 100 nM incubated for 24 hrs; type: functional, cell-based
# [5] = test system: SR; experiment: Potency index, ratio of alectinib IC50 to test compound IC50 for antiproliferative activity against ALK positive human SR cells; type: functional
# [6] = biological target: T1, Protein cereblon/ALK tyrosine kinase receptor (Homo sapiens, UniProt Q9UM73+Q96SW2); experiment: Protac activity at CRBN/ALK in human SR cells assessed as induction of ALK degradation by Western blot analysis; type: cell-based
# Target sequence in this assay (Q9UM73 whole entry): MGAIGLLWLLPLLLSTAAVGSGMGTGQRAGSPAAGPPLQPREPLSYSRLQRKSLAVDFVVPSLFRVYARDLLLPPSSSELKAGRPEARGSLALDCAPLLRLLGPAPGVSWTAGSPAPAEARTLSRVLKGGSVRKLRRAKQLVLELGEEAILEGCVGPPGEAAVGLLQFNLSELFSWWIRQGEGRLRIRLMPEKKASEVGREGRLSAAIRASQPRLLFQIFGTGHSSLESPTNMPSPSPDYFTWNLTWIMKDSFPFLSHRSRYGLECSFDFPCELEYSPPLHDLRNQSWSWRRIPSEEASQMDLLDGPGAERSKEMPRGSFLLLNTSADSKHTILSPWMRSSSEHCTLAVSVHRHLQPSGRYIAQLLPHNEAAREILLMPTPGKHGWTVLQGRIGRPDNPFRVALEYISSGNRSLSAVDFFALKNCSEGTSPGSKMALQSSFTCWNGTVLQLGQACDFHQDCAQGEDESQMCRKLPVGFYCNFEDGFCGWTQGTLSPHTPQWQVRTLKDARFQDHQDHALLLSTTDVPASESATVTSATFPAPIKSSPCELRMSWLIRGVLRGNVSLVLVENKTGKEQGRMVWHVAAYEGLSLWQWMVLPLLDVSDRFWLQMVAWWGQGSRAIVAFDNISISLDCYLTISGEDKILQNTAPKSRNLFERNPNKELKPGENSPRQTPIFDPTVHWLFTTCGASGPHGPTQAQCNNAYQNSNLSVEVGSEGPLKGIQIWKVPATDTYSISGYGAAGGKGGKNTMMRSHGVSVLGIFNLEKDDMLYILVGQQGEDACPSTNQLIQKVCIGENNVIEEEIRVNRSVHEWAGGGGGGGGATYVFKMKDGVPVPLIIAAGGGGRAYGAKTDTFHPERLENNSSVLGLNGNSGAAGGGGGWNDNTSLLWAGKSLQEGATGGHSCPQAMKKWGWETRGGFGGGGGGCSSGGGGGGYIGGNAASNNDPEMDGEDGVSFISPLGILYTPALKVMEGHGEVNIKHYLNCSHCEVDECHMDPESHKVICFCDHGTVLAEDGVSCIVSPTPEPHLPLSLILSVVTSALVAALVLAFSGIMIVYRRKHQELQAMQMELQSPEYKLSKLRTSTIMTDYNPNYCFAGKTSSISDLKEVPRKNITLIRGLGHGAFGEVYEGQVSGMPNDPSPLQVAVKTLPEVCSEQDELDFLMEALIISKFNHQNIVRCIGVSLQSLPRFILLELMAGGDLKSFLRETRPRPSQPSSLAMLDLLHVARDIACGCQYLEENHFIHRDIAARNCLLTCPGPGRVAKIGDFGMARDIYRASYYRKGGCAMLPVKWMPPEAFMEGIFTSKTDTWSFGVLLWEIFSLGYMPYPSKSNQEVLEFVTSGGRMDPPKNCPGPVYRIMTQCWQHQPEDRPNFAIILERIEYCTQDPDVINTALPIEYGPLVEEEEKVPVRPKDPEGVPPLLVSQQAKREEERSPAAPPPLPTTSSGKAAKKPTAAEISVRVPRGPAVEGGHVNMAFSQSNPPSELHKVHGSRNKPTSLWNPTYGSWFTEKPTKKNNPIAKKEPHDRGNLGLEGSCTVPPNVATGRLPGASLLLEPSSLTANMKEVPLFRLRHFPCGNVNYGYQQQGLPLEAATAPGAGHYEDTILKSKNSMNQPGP
# Target sequence in this assay (Q96SW2 whole entry): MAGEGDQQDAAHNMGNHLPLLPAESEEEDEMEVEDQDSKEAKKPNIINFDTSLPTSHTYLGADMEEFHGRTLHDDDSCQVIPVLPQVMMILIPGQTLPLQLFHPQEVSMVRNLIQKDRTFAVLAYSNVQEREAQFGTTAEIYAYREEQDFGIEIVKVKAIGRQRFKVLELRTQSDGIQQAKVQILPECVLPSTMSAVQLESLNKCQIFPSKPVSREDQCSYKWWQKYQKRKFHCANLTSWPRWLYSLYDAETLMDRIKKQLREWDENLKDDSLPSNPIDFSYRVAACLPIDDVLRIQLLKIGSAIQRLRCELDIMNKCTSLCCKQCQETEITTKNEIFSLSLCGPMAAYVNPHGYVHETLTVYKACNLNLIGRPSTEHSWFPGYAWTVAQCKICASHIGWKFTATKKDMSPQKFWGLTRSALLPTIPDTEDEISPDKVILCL
# [7] = biological target: T1, Protein cereblon/ALK tyrosine kinase receptor; experiment: Protac activity at CRBN/ALK in human SR cells assessed as protein abundance at 500 nM by Western blot analysis (reference value: 1); type: cell-based
# Target sequence in this assay (Q96SW2 whole entry partner): as the sequence (Q96SW2 whole entry) above
# Target sequence in this assay (Q9UM73 19-1620 limits assumed): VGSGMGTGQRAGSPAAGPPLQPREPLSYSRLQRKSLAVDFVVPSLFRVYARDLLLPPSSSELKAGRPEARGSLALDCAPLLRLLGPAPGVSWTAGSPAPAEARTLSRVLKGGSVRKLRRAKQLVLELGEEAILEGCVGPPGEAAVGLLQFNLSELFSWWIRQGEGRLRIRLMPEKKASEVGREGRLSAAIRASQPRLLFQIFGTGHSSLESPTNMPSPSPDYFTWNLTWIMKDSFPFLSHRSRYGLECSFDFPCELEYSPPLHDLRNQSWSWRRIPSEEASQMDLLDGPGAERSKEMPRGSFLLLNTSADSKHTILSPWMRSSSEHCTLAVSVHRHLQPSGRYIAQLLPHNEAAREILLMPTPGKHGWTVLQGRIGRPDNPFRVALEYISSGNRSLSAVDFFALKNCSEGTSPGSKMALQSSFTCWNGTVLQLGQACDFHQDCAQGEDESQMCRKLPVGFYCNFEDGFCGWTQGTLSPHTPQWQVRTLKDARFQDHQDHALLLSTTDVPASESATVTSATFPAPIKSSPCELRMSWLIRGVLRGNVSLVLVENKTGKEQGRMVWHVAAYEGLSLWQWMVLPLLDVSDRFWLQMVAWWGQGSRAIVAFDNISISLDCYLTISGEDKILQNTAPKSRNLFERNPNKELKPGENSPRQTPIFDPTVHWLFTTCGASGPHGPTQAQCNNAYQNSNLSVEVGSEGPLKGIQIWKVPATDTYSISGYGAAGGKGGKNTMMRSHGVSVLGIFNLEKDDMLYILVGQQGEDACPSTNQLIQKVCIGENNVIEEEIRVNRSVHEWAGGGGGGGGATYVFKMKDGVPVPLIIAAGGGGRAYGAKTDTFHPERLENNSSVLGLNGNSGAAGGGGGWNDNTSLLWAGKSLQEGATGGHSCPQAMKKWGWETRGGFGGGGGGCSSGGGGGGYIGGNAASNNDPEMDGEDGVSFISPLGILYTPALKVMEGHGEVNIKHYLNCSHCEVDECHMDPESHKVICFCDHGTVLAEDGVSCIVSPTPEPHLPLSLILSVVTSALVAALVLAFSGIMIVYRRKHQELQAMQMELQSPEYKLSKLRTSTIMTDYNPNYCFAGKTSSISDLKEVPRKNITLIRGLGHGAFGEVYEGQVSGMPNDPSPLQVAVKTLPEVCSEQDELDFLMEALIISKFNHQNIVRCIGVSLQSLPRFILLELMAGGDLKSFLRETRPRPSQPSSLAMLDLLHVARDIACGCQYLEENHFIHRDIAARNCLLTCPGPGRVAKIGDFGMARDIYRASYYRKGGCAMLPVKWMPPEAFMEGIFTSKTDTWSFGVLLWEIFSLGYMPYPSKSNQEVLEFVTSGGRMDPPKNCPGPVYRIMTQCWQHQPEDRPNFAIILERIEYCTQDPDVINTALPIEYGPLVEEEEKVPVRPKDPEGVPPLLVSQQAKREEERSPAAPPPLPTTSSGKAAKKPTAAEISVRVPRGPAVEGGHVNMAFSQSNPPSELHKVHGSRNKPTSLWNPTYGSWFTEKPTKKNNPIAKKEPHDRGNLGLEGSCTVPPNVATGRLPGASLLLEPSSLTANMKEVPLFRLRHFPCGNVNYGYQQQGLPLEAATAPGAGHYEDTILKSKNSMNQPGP
# [8] = biological target: T2, ALK tyrosine kinase receptor (Homo sapiens, UniProt Q9UM73); experiment: Inhibition of ALK (unknown origin)
# Target sequence in this assay (Q9UM73 whole entry): as the sequence (Q9UM73 whole entry) above
# [9] = biological target: T1, Protein cereblon/ALK tyrosine kinase receptor; experiment: Protac activity at CRBN/ALK in human SR cells assessed as induction of ALK degradation at 0.05 to 500 nM by Western blot analysis relative to control; type: cell-based; conditions: dose 0.05-500 nM
# Target sequence in this assay (Q96SW2 whole entry partner): as the sequence (Q96SW2 whole entry) above
# Target sequence in this assay (Q9UM73 19-1620 limits assumed): as the sequence (Q9UM73 19-1620 limits assumed) above
# [10] = biological target: T1, Protein cereblon/ALK tyrosine kinase receptor; experiment: Protac activity at CRBN/ALK in human SR cells assessed as increase in ALK degradation at 50 nM in presence of MLN4924/MG132 by Western blot analysis; type: cell-based
# Target sequence in this assay (Q96SW2 whole entry partner): as the sequence (Q96SW2 whole entry) above
# Target sequence in this assay (Q9UM73 19-1620 limits assumed): as the sequence (Q9UM73 19-1620 limits assumed) above
# [11] = biological target: T2, ALK tyrosine kinase receptor; experiment: Inhibition of ALK phosphorylation in human SR cells at 0.5 nM; type: cell-based
# Target sequence in this assay (Q9UM73 19-1620 limits assumed): as above
# [12] = biological target: T1, Protein cereblon/ALK tyrosine kinase receptor; experiment: Protac activity at CRBN/ALK in human SR cells assessed as increase in ALK degradation at 200 nM by Western blot analysis relative to control; type: cell-based
# Target sequence in this assay (Q96SW2 whole entry partner): as the sequence (Q96SW2 whole entry) above
# Target sequence in this assay (Q9UM73 19-1620 limits assumed): as the sequence (Q9UM73 19-1620 limits assumed) above
# [13] = biological target: T1, Protein cereblon/ALK tyrosine kinase receptor; experiment: Protac activity at CRBN/ALK in human SR cells assessed as protein abundance at 0.5 nM by Western blot analysis (reference value: 1); type: cell-based
# Target sequence in this assay (Q96SW2 whole entry partner): as the sequence (Q96SW2 whole entry) above
# Target sequence in this assay (Q9UM73 19-1620 limits assumed): as the sequence (Q9UM73 19-1620 limits assumed) above
# [14] = biological target: T1, Protein cereblon/ALK tyrosine kinase receptor; experiment: Protac activity at CRBN/ALK in human SR cells assessed as protein abundance at 0.05 nM by Western blot analysis (reference value: 1); type: cell-based
# Target sequence in this assay (Q96SW2 whole entry partner): as the sequence (Q96SW2 whole entry) above
# Target sequence in this assay (Q9UM73 19-1620 limits assumed): as the sequence (Q9UM73 19-1620 limits assumed) above
# [15] = test system: SR; experiment: Potency index, ratio of ceritinib IC50 to test compound IC50 for antiproliferative activity against ALK positive human SR cells; type: functional
# [16] = biological target: T1, Protein cereblon/ALK tyrosine kinase receptor; experiment: Protac activity at CRBN/ALK in human SR cells assessed as protein abundance at 50 nM by Western blot analysis (reference value: 1); type: cell-based
# [17] = biological target: T1, Protein cereblon/ALK tyrosine kinase receptor; experiment: Protac activity at CRBN/ALK in human SR cells assessed as increase in ALK degradation at 500 nM by Western blot analysis; type: cell-based
# [18] = biological target: T2, ALK tyrosine kinase receptor; experiment: Inhibition of ALK in human SR cells assessed as reduction in STAT3 phosphorylation at 50 nM; type: cell-based
# Target sequence in this assay (Q9UM73 19-1620 limits assumed): as above
# [19] = biological target: T1, Protein cereblon/ALK tyrosine kinase receptor; experiment: Protac activity at CRBN/ALK in human SR cells assessed as protein abundance at 5 nM by Western blot analysis (reference value: 1); type: cell-based
# [20] = biological target: T1, Protein cereblon/ALK tyrosine kinase receptor; experiment: Protac activity at CRBN/ALK in human SR cells assessed as increase in ALK degradation at 50 nM in presence of MG132 by Western blot analysis; type: cell-based
# Chain of von Hippel-Lindau disease tumor suppressor/ALK tyrosine kinase receptor (Homo sapiens) (P40337 whole entry partner): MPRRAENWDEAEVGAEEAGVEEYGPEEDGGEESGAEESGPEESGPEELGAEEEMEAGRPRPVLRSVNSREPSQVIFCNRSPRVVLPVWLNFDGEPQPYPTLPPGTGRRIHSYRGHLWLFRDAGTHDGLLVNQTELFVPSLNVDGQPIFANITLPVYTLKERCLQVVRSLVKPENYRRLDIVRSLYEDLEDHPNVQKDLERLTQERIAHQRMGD
# Chain of von Hippel-Lindau disease tumor suppressor/ALK tyrosine kinase receptor (Homo sapiens) (Q9UM73 19-1620 limits assumed): as the sequence (Q9UM73 19-1620 limits assumed) above
smiles,measurement,setting,value
CCc1cc2c(cc1N1CCC(N)CC1)C(C)(C)c1[nH]c3cc(C#N)ccc3c1C2=O,IC50,[1],2.8 nM
CCc1cc2c(cc1N1CCNCC1)C(C)(C)c1[nH]c3cc(C#N)ccc3c1C2=O,IC50,[1],0.8 nM
CCc1cc2c(cc1N1CCN(C(=O)CCCNc3cccc4c3C(=O)N(C3CCC(=O)NC3=O)C4=O)CC1)C(C)(C)c1[nH]c3cc(C#N)ccc3c1C2=O (configuration not stated),IC50,[1],9.2 nM
CCc1cc2c(cc1N1CCC(NC(=O)CCCCCNc3cccc4c3C(=O)N(C3CCC(=O)NC3=O)C4=O)CC1)C(C)(C)c1[nH]c3cc(C#N)ccc3c1C2=O (configuration not stated),IC50,[1],3.8 nM
"CCc1cc2c(cc1N1CCC(N3CCN(C(=O)CCCCCCCCC(=O)NC(C(=O)N4C[C@H](O)C[C@H]4C(=O)NCc4ccc(-c5scnc5C)cc4)C(C)(C)C)CC3)CC1)C(C)(C)c1[nH]c3cc(C#N)ccc3c1C2=O (single isomer, unassigned)",Activity,[2],Active
same,IC50,[1],18 nM
CCc1cc2c(cc1N1CCC(NC(=O)CCOCCOCCOCCOCCNc3cccc4c3C(=O)N(C3CCC(=O)NC3=O)C4=O)CC1)C(C)(C)c1[nH]c3cc(C#N)ccc3c1C2=O (configuration not stated),IC50,[1],5.9 nM
CCc1cc2c(cc1N1CCC(N3CCOCC3)CC1)C(C)(C)c1[nH]c3cc(C#N)ccc3c1C2=O [ALECTINIB],Activity,[3],Active
same,IC50,[1],3.4 nM
same,Activity,[4],Active
CCc1cc2c(cc1N1CCC(N3CCN(C(=O)CNc4cccc5c4CN(C4CCC(=O)NC4=O)C5=O)CC3)CC1)C(C)(C)c1[nH]c3cc(C#N)ccc3c1C2=O (configuration not stated),Ratio,[5],6
same,DC50,[6],6300 nM
same,Activity,[7],0.27
same,IC50,[8],4.7 nM
same,Emax,[9],87.7%
same,Activity,[10],inactive
same,inhibition,[11],inactive
same,Activity,[12],> 50%
same,Activity,[13],0.67
same,Activity,[14],0.9
same,Ratio,[15],5
same,Activity,[16],0.24
same,Activity,[17],Active
same,inhibition,[18],inactive
same,Activity,[3],Active
same,Activity,[19],0.48
same,IC50,[1],0.5 nM
same,Activity,[20],inactive
same,Activity,[4],inactive
CCc1cc2c(cc1N1CCN(C(=O)CCOCCOCCNc3cccc4c3C(=O)N(C3CCC(=O)NC3=O)C4=O)CC1)C(C)(C)c1[nH]c3cc(C#N)ccc3c1C2=O (configuration not stated),IC50,[1],30.8 nM
CCc1cc2c(cc1N1CCN(C(=O)CCCCCNc3cccc4c3C(=O)N(C3CCC(=O)NC3=O)C4=O)CC1)C(C)(C)c1[nH]c3cc(C#N)ccc3c1C2=O (configuration not stated),IC50,[1],15.1 nM
CCc1cc2c(cc1N1CCC(N3CCN(C(=O)CCCNc4cccc5c4C(=O)N(C4CCC(=O)NC4=O)C5=O)CC3)CC1)C(C)(C)c1[nH]c3cc(C#N)ccc3c1C2=O (configuration not stated),Activity,[7],0.47
same,Activity,[13],0.82
same,Activity,[14],1.05
same,Activity,[16],0.55
same,Activity,[17],Active
same,Activity,[19],0.66
same,IC50,[1],12.9 nM
CCc1cc2c(cc1N1CCC(N3CCN(C(=O)CNc4cccc5c4C(=O)N(C4CCC(=O)NC4=O)C5=O)CC3)CC1)C(C)(C)c1[nH]c3cc(C#N)ccc3c1C2=O (configuration not stated),Activity,[2],Active
same,IC50,[1],4.1 nM
Cc1cc(Nc2ncc(Cl)c(Nc3ccccc3S(=O)(=O)C(C)C)n2)c(OC(C)C)cc1C1CCN(C(=O)NCCOCCOCCOCCOCCOCCNC(=O)CNc2cccc3c2C(=O)N(C2CCC(=O)NC2=O)C3=O)CC1 (configuration not stated),IC50,[1],13.8 nM
CCc1cc2c(cc1N1CCC(N3CCN(C(=O)CCOCCOCCOCCOCCNc4cccc5c4C(=O)N(C4CCC(=O)NC4=O)C5=O)CC3)CC1)C(C)(C)c1[nH]c3cc(C#N)ccc3c1C2=O (configuration not stated),Activity,[7],0.53
same,Activity,[13],1.03
same,Activity,[14],1.01
same,Activity,[16],0.7
same,Activity,[17],Active
same,Activity,[19],0.96
same,IC50,[1],3.1 nM
COc1cc(N2CCC(NC(=O)CCCCCCCCCC(=O)N[C@@H](C(=O)N3C[C@H](O)C[C@H]3C(=O)NCc3ccc(-c4scnc4C)cc3)C(C)(C)C)CC2)ccc1Nc1ncc(Cl)c(Nc2ccccc2P(C)(C)=O)n1,IC50,[1],1.1 nM
CCc1cc2c(cc1N1CCN(C(=O)CCOCCOCCOCCOCCNc3cccc4c3C(=O)N(C3CCC(=O)NC3=O)C4=O)CC1)C(C)(C)c1[nH]c3cc(C#N)ccc3c1C2=O (configuration not stated),IC50,[1],11.9 nM
CCc1cc2c(cc1N1CCC(N3CCN(C(=O)CCCCNc4cccc5c4CN(C4CCC(=O)NC4=O)C5=O)CC3)CC1)C(C)(C)c1[nH]c3cc(C#N)ccc3c1C2=O (configuration not stated),IC50,[1],4.7 nM
CCc1cc2c(cc1N1CCC(N3CCNCC3)CC1)C(C)(C)c1[nH]c3cc(C#N)ccc3c1C2=O,IC50,[1],4.9 nM
